From ChEMBL document CHEMBL1146040, “Lactones from a brown alga endophytic fungus (No. ZZF36) from the South China Sea and their antimicrobial activities” (2006) come the findings set out here.

One assay deals with Bacillus subtilis. The assay can be described thus: Antibacterial activity against Bacillus subtilis ATCC 6633. It is filed as functional.
In a further assay the test system is Fusarium oxysporum. The assay can be described thus: Antifungal activity against Fusarium oxysporum f.sp.cubense. In kind it is functional.
For a further assay, the system named is Candida albicans. The assay is described as follows: Antifungal activity against Candida albicans ATCC 10231. In kind it is functional.
In another assay the test system is Salmonella enteritidis. The assay is described as follows: Antibacterial activity against Salmonella enteritidis ATCC 13076. In kind it is functional, Salmonella enterica subsp. enterica serovar Enteritidis. As to conditions: Salmonella enterica.
The test system of the next assay is Escherichia coli. The assay can be described thus: Antibacterial activity against Escherichia coli ATCC 25922. It is filed as functional.
Another assay concerns Staphylococcus aureus. The assay can be described thus: Antibacterial activity against Staphylococcus aureus ATCC 27154. It is filed as functional.

Converted amounts (≈) assume the structure as drawn.

With `COc1cc(O)cc2c1C(=O)O[C@@H](C)CCCCCCC2` [LASIODIPLODIN], the MIC – broadly, the lowest concentration found to suppress growth – in the assay on Bacillus subtilis was 50 µg/mL (≈ 171 µM); against Fusarium oxysporum, 100 µg/mL (≈ 342 µM); against Candida albicans, more than 100 µg/mL; against Salmonella enteritidis it was more than 100 µg/mL; in the assay on Escherichia coli, more than 100 µg/mL; with Staphylococcus aureus, 25 µg/mL (≈ 85.5 µM).

Regarding `CC1CC(O)CCCCCc2cc(O)cc(O)c2C(=O)O1` (configuration not stated), the minimal inhibitory concentration (MIC) against Bacillus subtilis was more than 100 µg/mL; against Fusarium oxysporum, more than 100 µg/mL; against Candida albicans, more than 100 µg/mL; in the assay with Salmonella enteritidis, more than 100 µg/mL; in the assay on Escherichia coli it was more than 100 µg/mL; in the assay with Staphylococcus aureus, 100 µg/mL (≈ 340 µM).

As to `COc1cc(OC(C)=O)cc2c1C(=O)OC(C)CCCCCCC2` (configuration not stated), the minimum inhibitory concentration (MIC) in the assay with Bacillus subtilis, in the assay on Fusarium oxysporum, with Candida albicans, in the assay on Salmonella enteritidis, against Escherichia coli and against Staphylococcus aureus was more than 100 µg/mL each time.

With `CC1CCC(=O)CCCCc2cc(O)cc(O)c2C(=O)O1` (configuration not stated), the minimum inhibitory concentration (MIC) against Bacillus subtilis, against Fusarium oxysporum, with Candida albicans, in the assay on Salmonella enteritidis, with Escherichia coli and against Staphylococcus aureus was more than 100 µg/mL each time.

For `CC1CCCCCCCc2cc(O)cc(O)c2C(=O)O1` (configuration not stated), the MIC was 12.5 µg/mL (≈ 44.9 µM) in the assay on Bacillus subtilis; 50 µg/mL (≈ 180 µM) in the assay on Fusarium oxysporum; 100 µg/mL (≈ 359 µM) in the assay on Candida albicans; 12.5 µg/mL (≈ 44.9 µM) against Salmonella enteritidis; more than 100 µg/mL against Escherichia coli; 6.25 µg/mL (≈ 22.5 µM) in the assay on Staphylococcus aureus.

In the case of NYSTATIN, the figures for the MIC against Fusarium oxysporum and with Candida albicans were 3.12 µg/mL and 1.56 µg/mL, respectively.

Turning to `COc1c(Br)c(O)c(Br)c2c1C(=O)OC(C)CCCCCCC2` (configuration not stated), the MIC against Bacillus subtilis was 6.25 µg/mL (≈ 13.9 µM); against Fusarium oxysporum, 12.5 µg/mL (≈ 27.8 µM); against Candida albicans, more than 100 µg/mL; against Salmonella enteritidis, more than 100 µg/mL; against Escherichia coli it was more than 100 µg/mL; with Staphylococcus aureus, more than 100 µg/mL.

In the case of `CC1(C)S[C@@H]2[C@H](NC(=O)[C@H](N)c3ccccc3)C(=O)N2[C@H]1C(=O)O` [AMPICILLIN], the MIC is 100 µg/mL (≈ 286 µM) against Bacillus subtilis, 50 µg/mL (≈ 143 µM) with Salmonella enteritidis, 6.25 µg/mL (≈ 17.9 µM) against Escherichia coli and more than 100 µg/mL with Staphylococcus aureus.
